In PubChem BioAssay (NCI):
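How tested: cells in 96-well plates exposed to compound for 48 hours at five concentrations. TGI denotes the concentration required for complete inhibition of growth.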

What was measured:
Test in all cases: NCI tumour cell line growth inhibition, 48 h
[1] = test system: 786-0 renal
[2] = test system: A498 renal
[3] = test system: A549 NSCLC
[4] = test system: ACHN renal
[5] = test system: BT-549 breast
[6] = test system: CAKI-1 renal
[7] = test system: CCRF-CEM leukemia
[8] = test system: COLO 205 colon
[9] = test system: DU-145 prostate
[10] = test system: EKVX NSCLC
[11] = test system: HCT-116 colon
[12] = test system: HCT-15 colon
[13] = test system: HL-60(TB) leukemia
[14] = test system: HOP-62 NSCLC
[15] = test system: HOP-92 NSCLC
[16] = test system: HS 578T breast
[17] = test system: HT29 colon
[18] = test system: IGROV1 ovarian
[19] = test system: K-562 leukemia
[20] = test system: KM12 colon
[21] = test system: LOX IMVI melanoma
[22] = test system: M14 melanoma
[23] = test system: MALME-3M melanoma
[24] = test system: MCF7 breast
[25] = test system: MDA-MB-231 breast
[26] = test system: MDA-MB-435
[27] = test system: MDA-N
[28] = test system: MOLT-4 leukemia
[29] = test system: NCI-H226 lung
[30] = test system: NCI-H23 lung
[31] = test system: NCI-H460 lung
[32] = test system: NCI-H522 lung
[33] = test system: NCI/ADR-RES ovarian
[34] = test system: OVCAR-3 ovarian
[35] = test system: OVCAR-4 ovarian
[36] = test system: OVCAR-5 ovarian
[37] = test system: OVCAR-8 ovarian
[38] = test system: PC-3 prostate
[39] = test system: RXF 393 renal
[40] = test system: SF-268 CNS
[41] = test system: SF-295 CNS
[42] = test system: SF-539 CNS
[43] = test system: SK-MEL-2 melanoma
[44] = test system: SK-MEL-28 melanoma
[45] = test system: SK-MEL-5 melanoma
[46] = test system: SK-OV-3 ovarian
[47] = test system: SN12C renal
[48] = test system: SNB-19 CNS
[49] = test system: SNB-75 CNS
[50] = test system: SW-620 colon
[51] = test system: T-47D breast
[52] = test system: TK-10 renal
[53] = test system: U251 CNS
[54] = test system: UACC-257 melanoma
[55] = test system: UACC-62 melanoma
[56] = test system: UO-31 renal
[57] = test system: HCC-2998 colon
[58] = test system: RPMI-8226 leukemia
[59] = test system: SR leukemia

Measured: TGI

CC1(C)C(C(=O)OC(C#N)c2cccc(OCC(=O)OCc3ccccc3)c2)C1(C)C (stereo not drawn)
22.9 µM: [13]
62.7 µM: [28]
76.5 µM: [7]
not listed: [57] | [58] | [59]
> 100 µM: all other assays above

Cc1cc(NS(=O)(=O)c2ccc(NC(=O)c3cccc4c(NNc5ccc(S(N)(=O)=O)cc5)c5ccccc5nc34)cc2)no1
93.2 µM: [59]
89 µM: [44]
71.1 µM: [34]
63.6 µM: [53]
76.5 µM: [13]
86.1 µM: [21]
73.2 µM: [17]
91.7 µM: [29]
61 µM: [43]
72.8 µM: [32]
66.2 µM: [7]
82 µM: [15]
92.9 µM: [57]
96.6 µM: [49]
87.9 µM: [28]
not listed: [2] | [16]
> 100 µM: all other assays above
